Experimental data published in ChEMBL document CHEMBL5338741, “Discovery of an In Vivo Chemical Probe for BCL6 Inhibition by Optimization of Tricyclic Quinolinones” (J Med Chem, 2023).

Legend:
[1] = molecular target: BCL-6/NCOR2 (Homo sapiens) (UniProt Q9Y618+P41182); conditions: HEK293T, time 6.0 hrs
[2] = molecular target: BCL-6/NCOR2 (Homo sapiens, UniProt P41182); format: cell-based, HEK293T
Description: Inhibition of C-terminal NanoLuc-fused BCL6 (unknown origin)/Halo-tagged SMRT (unknown origin) interaction transfected in HEK293T cells measured after 6 hrs by NanoBRET assay

[3] = molecular target: B-cell lymphoma 6 protein (Homo sapiens, UniProt P41182)

Sequence of BCL-6/NCOR2 (Homo sapiens) (Q9Y618 whole entry, looked up, other chains not shown): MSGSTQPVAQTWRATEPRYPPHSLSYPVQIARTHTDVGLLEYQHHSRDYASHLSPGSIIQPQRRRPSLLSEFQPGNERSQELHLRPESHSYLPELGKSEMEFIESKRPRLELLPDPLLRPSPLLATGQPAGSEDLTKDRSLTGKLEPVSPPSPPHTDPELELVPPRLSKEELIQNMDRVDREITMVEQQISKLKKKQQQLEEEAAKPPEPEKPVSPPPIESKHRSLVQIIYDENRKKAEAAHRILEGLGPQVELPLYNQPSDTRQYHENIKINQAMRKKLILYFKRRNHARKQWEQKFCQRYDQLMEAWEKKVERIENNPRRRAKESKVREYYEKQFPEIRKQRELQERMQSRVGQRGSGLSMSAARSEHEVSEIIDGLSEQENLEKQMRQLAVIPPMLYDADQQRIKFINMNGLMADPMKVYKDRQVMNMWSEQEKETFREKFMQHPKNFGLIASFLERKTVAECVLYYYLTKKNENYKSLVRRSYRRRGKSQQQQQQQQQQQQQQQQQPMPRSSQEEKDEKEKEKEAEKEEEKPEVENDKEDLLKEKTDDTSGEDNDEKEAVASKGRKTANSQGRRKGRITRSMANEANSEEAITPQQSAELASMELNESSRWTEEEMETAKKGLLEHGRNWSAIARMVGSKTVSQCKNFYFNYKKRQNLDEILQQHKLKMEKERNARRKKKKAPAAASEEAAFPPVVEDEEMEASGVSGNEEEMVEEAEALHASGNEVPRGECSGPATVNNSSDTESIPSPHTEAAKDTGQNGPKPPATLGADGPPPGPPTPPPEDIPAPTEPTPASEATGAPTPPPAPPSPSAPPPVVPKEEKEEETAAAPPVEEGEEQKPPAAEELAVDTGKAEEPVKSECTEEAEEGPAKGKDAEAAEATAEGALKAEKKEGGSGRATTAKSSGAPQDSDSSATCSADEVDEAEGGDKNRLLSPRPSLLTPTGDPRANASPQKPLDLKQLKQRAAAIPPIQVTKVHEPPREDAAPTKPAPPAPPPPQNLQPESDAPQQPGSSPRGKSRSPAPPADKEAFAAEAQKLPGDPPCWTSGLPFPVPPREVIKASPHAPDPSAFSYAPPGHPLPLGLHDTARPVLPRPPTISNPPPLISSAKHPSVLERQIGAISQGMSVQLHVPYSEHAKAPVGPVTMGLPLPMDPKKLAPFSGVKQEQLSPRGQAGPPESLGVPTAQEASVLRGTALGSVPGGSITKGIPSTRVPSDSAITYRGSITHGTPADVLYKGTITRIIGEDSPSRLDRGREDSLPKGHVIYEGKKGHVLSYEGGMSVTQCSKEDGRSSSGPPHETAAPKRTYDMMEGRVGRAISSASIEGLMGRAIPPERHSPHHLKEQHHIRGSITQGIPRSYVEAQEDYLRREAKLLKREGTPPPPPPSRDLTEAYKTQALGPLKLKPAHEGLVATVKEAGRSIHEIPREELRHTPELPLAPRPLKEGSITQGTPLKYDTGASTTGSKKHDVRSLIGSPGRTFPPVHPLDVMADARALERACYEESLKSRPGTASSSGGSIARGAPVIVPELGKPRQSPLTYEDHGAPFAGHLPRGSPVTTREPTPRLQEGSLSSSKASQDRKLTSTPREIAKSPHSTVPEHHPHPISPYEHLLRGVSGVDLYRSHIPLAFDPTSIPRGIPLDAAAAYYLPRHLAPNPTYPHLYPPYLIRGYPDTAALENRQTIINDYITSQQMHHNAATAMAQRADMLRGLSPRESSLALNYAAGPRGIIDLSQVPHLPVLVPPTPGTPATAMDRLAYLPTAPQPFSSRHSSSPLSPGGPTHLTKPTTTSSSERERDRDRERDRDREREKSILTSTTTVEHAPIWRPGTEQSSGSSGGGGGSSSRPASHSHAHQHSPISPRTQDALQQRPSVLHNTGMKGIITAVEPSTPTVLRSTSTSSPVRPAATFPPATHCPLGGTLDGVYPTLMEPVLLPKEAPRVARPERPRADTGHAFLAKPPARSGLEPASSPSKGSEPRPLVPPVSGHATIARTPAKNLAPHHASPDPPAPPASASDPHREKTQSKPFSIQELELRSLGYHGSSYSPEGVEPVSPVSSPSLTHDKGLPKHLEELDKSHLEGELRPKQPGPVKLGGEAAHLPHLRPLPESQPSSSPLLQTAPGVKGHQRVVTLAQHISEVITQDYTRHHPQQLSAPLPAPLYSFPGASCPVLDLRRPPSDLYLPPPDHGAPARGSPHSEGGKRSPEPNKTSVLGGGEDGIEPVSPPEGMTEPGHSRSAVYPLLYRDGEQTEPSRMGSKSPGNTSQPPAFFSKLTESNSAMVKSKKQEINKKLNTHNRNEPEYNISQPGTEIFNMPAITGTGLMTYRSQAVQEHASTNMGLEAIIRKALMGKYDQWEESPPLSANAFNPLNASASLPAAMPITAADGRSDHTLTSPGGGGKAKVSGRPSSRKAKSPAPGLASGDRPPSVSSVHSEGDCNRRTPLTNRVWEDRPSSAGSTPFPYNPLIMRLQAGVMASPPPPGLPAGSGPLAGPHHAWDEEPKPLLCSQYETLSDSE

| SMILES | IC90 [1] | fIC50 [1] | fIC90 [1] | IC50 [2] | IC50 [3] |
| --- | --- | --- | --- | --- | --- |
| Cn1c(=O)c2c(c3cc(Nc4nc(N5C6CCC5COC6)ncc4Cl)ccc31)N[C@@H](C1CC1)C(F)(F)CO2 | 3.2 nM | 143 nM | 42 nM |  |  |
| CC(=O)N1CC2CCC(C1)N2c1ncc(Cl)c(Nc2ccc3c(c2)c2c(c(=O)n3C)OCC(F)(F)[C@H](C3CC3)N2)n1 |  |  |  | 26.9 nM | 0.9 nM |
| Cn1c(=O)c2c(c3cc(Nc4ccnc(F)c4Cl)ccc31)N[C@@H](C1CC1)C(F)(F)CO2 |  | 6.8 nM | 44 nM |  |  |
| CC(=O)N1C2CCC1CN(c1ncc(Cl)c(Nc3ccc4c(c3)c3c(c(=O)n4C)OCC(F)(F)[C@H](C4CC4)N3)n1)C2 |  |  |  | 41 nM | 1.9 nM |
| Cn1c(=O)c2c(c3cc(Nc4nc(N5CC(F)(F)C5)ncc4Cl)ccc31)N[C@@H](C1CC1)C(F)(F)CO2 |  | 8.9 nM | 50 nM |  |  |
